Tested on: New Zealand rabbits with normal intraocular pressure
Test: Reduction of intraocular pressure by repeated eye-drop administration for 14 days, experiment operation 1
Format: in vivo
Details: for Change of intraocular pressure: negative control minus group
Text: Experimental example 4. Experiment on reduction of intraocular pressure and ocular toxicity of New Zealand rabbits with normal intraocular pressure by repeated eye-drop administration for 14 days
The intraocular pressure reduction action and the potential ocular toxicity of compound 63 were explored by 14 days of repeated eye-drop administration in rabbits with normal intraocular pressure.
Male New Zealand rabbits, aged 97-127 days, weighted 2.6-3.5 kg, purchased from PizhouDongfang Breeding Co. Ltd.
The male New Zealand rabbits were randomly divided into 7 groups, with 6 rabbits per group. Animals were randomly divided according to body weight Animals in 1-7 groups were eye-dropped with solvent/control sample/test sample in both eyes, the volume of the administration was all 50 μL/eye, once per day for 14 consecutive days, and the day of the administration was recorded as Day 1. On Day 1, intraocular pressure of the animals was measured before the administration and in 1, 2, 4, 6, 8 and 10 hours after the administration, respectively; on Days 2-14, intraocular pressure of the animals was measured in 1 hour after daily administration for the group administered with K-115, and intraocular pressure of the animal was measured in 4 hours after daily administration for the other groups.

[1] = 0.5 mg/mL once per day, Day 2, 4 hours after daily administration
[2] = 0.5 mg/mL once per day, Day 3, 4 hours after daily administration
[3] = 0.5 mg/mL once per day, Day 4, 4 hours after daily administration
[4] = 0.5 mg/mL once per day, Day 5, 4 hours after daily administration
[5] = 0.5 mg/mL once per day, Day 6, 4 hours after daily administration
[6] = 0.5 mg/mL once per day, Day 7, 4 hours after daily administration
[7] = 1.0 mg/mL once per day, Day 2, 4 hours after daily administration
[8] = 1.0 mg/mL once per day, Day 3, 4 hours after daily administration
[9] = 1.0 mg/mL once per day, Day 4, 4 hours after daily administration
[10] = 1.0 mg/mL once per day, Day 5, 4 hours after daily administration
[11] = 1.0 mg/mL once per day, Day 6, 4 hours after daily administration
[12] = 1.0 mg/mL once per day, Day 7, 4 hours after daily administration
[13] = 2.0 mg/mL once per day, Day 2, 4 hours after daily administration
[14] = 2.0 mg/mL once per day, Day 3, 4 hours after daily administration
[15] = 2.0 mg/mL once per day, Day 4, 4 hours after daily administration
[16] = 2.0 mg/mL once per day, Day 5, 4 hours after daily administration
[17] = 2.0 mg/mL once per day, Day 6, 4 hours after daily administration

Cc1ccc(C(=O)OCn2cc(C)c3c(S(=O)(=O)N4CC[C@H](N)C4)cccc3c2=O)c(C)c1 [Compound 63]
Mean intraocular pressure of both eyes (0.5 mg/mL both eyes, Day 1, 1 hour after administration): 8.83 mmHg | Mean intraocular pressure of both eyes (0.5 mg/mL both eyes, Day 1, 2 hours after administration): 7.56 mmHg | Mean intraocular pressure of both eyes (0.5 mg/mL both eyes, Day 1, 4 hours after administration): 7.11 mmHg | Mean intraocular pressure of both eyes (0.5 mg/mL both eyes, Day 1, 6 hours after administration): 9.61 mmHg | Mean intraocular pressure of both eyes (0.5 mg/mL both eyes, Day 1, 8 hours after administration): 9.06 mmHg | Mean intraocular pressure of both eyes (0.5 mg/mL both eyes, Day 1, 10 hours after administration): 9.97 mmHg | Mean intraocular pressure of both eyes (0.5 mg/mL both eyes, Day 1, before administration): 10.11 mmHg | Mean intraocular pressure of both eyes [1]: 7.94 mmHg | Change of intraocular pressure [1]: 3.14 mmHg | Mean intraocular pressure of both eyes [2]: 7.31 mmHg | Change of intraocular pressure [2]: 3.08 mmHg | Mean intraocular pressure of both eyes [3]: 7.78 mmHg | Change of intraocular pressure [3]: 2.83 mmHg | Mean intraocular pressure of both eyes [4]: 7.19 mmHg | Change of intraocular pressure [4]: 3.78 mmHg | Mean intraocular pressure of both eyes [5]: 6.61 mmHg | Change of intraocular pressure [5]: 2.7 mmHg | Mean intraocular pressure of both eyes [6]: 6.00 mmHg | Change of intraocular pressure [6]: 4.06 mmHg | Change of intraocular pressure (0.5 mg/mL once per day, Day 8, 4 hours after daily administration): 4.2 mmHg | Change of intraocular pressure (0.5 mg/mL once per day, Day 9, 4 hours after daily administration): 3.25 mmHg | Change of intraocular pressure (0.5 mg/mL once per day, Day 10, 4 hours after daily administration): 3 mmHg | Change of intraocular pressure (0.5 mg/mL once per day, Day 11, 4 hours after daily administration): 3.25 mmHg | Change of intraocular pressure (0.5 mg/mL once per day, Day 12, 4 hours after daily administration): 3.28 mmHg | Change of intraocular pressure (0.5 mg/mL once per day, Day 13, 4 hours after daily administration): 3.31 mmHg | Change of intraocular pressure (0.5 mg/mL once per day, Day 14, 4 hours after daily administration): 3.72 mmHg | Change of intraocular pressure (0.5 mg/mL, Day 1, 1 hour after administration): 1.48 mmHg | Change of intraocular pressure (0.5 mg/mL, Day 1, 2 hours after administration): 3.41 mmHg | Change of intraocular pressure (0.5 mg/mL, Day 1, 4 hours after administration): 4.2 mmHg | Change of intraocular pressure (0.5 mg/mL, Day 1, 6 hours after administration): 2.33 mmHg | Change of intraocular pressure (0.5 mg/mL, Day 1, 8 hours after administration): 3.91 mmHg | Change of intraocular pressure (0.5 mg/mL, Day 1, 10 hours after administration): 4.45 mmHg | Change of intraocular pressure (0.5 mg/mL, Day 1, before administration): −0.22 mmHg | Mean intraocular pressure of both eyes (1.0 mg/mL both eyes, Day 1, 1 hour after administration): 7.08 mmHg | Mean intraocular pressure of both eyes (1.0 mg/mL both eyes, Day 1, 2 hours after administration): 6.67 mmHg | Mean intraocular pressure of both eyes (1.0 mg/mL both eyes, Day 1, 4 hours after administration): 6.44 mmHg | Mean intraocular pressure of both eyes (1.0 mg/mL both eyes, Day 1, 6 hours after administration): 8.00 mmHg | Mean intraocular pressure of both eyes (1.0 mg/mL both eyes, Day 1, 8 hours after administration): 9.22 mmHg | Mean intraocular pressure of both eyes (1.0 mg/mL both eyes, Day 1, 10 hours after administration): 10.56 mmHg | Mean intraocular pressure of both eyes (1.0 mg/mL both eyes, Day 1, before administration): 9.94 mmHg | Mean intraocular pressure of both eyes [7]: 7.64 mmHg | Change of intraocular pressure [7]: 3.44 mmHg | Mean intraocular pressure of both eyes [8]: 7.50 mmHg | Change of intraocular pressure [8]: 2.89 mmHg | Mean intraocular pressure of both eyes [9]: 7.33 mmHg | Change of intraocular pressure [9]: 3.28 mmHg | Mean intraocular pressure of both eyes [10]: 7.44 mmHg | Change of intraocular pressure [10]: 3.53 mmHg | Mean intraocular pressure of both eyes [11]: 6.92 mmHg | Change of intraocular pressure [11]: 2.39 mmHg | Mean intraocular pressure of both eyes [12]: 7.00 mmHg | Change of intraocular pressure [12]: 3.06 mmHg | Change of intraocular pressure (1.0 mg/mL once per day, Day 8, 4 hours after daily administration): 4.03 mmHg | Change of intraocular pressure (1.0 mg/mL once per day, Day 9, 4 hours after daily administration): 2.5 mmHg | Change of intraocular pressure (1.0 mg/mL once per day, Day 10, 4 hours after daily administration): 2.44 mmHg | Change of intraocular pressure (1.0 mg/mL once per day, Day 11, 4 hours after daily administration): 2.19 mmHg | Change of intraocular pressure (1.0 mg/mL once per day, Day 12, 4 hours after daily administration): 2.64 mmHg | Change of intraocular pressure (1.0 mg/mL once per day, Day 13, 4 hours after daily administration): 3.33 mmHg | Change of intraocular pressure (1.0 mg/mL once per day, Day 14, 4 hours after daily administration): 3.53 mmHg | Change of intraocular pressure (1.0 mg/mL, Day 1, 1 hour after administration): 3.23 mmHg | Change of intraocular pressure (1.0 mg/mL, Day 1, 2 hours after administration): 4.3 mmHg | Change of intraocular pressure (1.0 mg/mL, Day 1, 4 hours after administration): 4.87 mmHg | Change of intraocular pressure (1.0 mg/mL, Day 1, 6 hours after administration): 3.94 mmHg | Change of intraocular pressure (1.0 mg/mL, Day 1, 8 hours after administration): 3.75 mmHg | Change of intraocular pressure (1.0 mg/mL, Day 1, 10 hours after administration): 3.86 mmHg | Change of intraocular pressure (1.0 mg/mL, Day 1, before administration): −0.05 mmHg | Mean intraocular pressure of both eyes (2.0 mg/mL both eyes, Day 1, 1 hour after administration): 8.56 mmHg | Mean intraocular pressure of both eyes (2.0 mg/mL both eyes, Day 1, 2 hours after administration): 7.47 mmHg | Mean intraocular pressure of both eyes (2.0 mg/mL both eyes, Day 1, 4 hours after administration): 7.47 mmHg | Mean intraocular pressure of both eyes (2.0 mg/mL both eyes, Day 1, 6 hours after administration): 7.25 mmHg | Mean intraocular pressure of both eyes (2.0 mg/mL both eyes, Day 1, 8 hours after administration): 8.44 mmHg | Mean intraocular pressure of both eyes (2.0 mg/mL both eyes, Day 1, 10 hours after administration): 9.67 mmHg | Mean intraocular pressure of both eyes (2.0 mg/mL both eyes, Day 1, before administration): 9.67 mmHg | Mean intraocular pressure of both eyes [13]: 7.03 mmHg | Change of intraocular pressure [13]: 4.05 mmHg | Mean intraocular pressure of both eyes [14]: 7.25 mmHg | Change of intraocular pressure [14]: 3.14 mmHg | Mean intraocular pressure of both eyes [15]: 6.86 mmHg | Change of intraocular pressure [15]: 3.75 mmHg | Mean intraocular pressure of both eyes [16]: 6.47 mmHg | Change of intraocular pressure [16]: 4.5 mmHg | Mean intraocular pressure of both eyes [17]: 5.92 mmHg | Change of intraocular pressure [17]: 3.39 mmHg

Reference: patent US12459918B2, “Isoquinolinone derivatives serving as rock protein kinase inhibitors and use thereof” (GUANGZHOU OCUSUN OPHTHALMIC BIOTECHNOLOGY CO., LTD., priority 2019, dated 2025)
